Source: ChEMBL document CHEMBL5338779, “Discovery, Synthesis, and In Vitro Characterization of 2,3 Derivatives of 4,5,6,7-Tetrahydro-Benzothiophene as Potent Modulators of Retinoic Acid Receptor-Related Orphan Receptor γt” (J Med Chem, 2023)
pIC50: −log10 of the molar value. Converted amounts (≈) assume the structure as drawn. The source made the active and inactive calls. No cut-off for these calls is given here.

Key:
[1] = Lipophilicity, logD of the compound at pH 7.4; conditions: buffer
[2] = molecular target: T1, Nuclear receptor ROR-gamma (Homo sapiens, UniProt P51449); experiment: biochemical; assay type: cell-based, Insect cell
T1 sequence (P51449 whole entry): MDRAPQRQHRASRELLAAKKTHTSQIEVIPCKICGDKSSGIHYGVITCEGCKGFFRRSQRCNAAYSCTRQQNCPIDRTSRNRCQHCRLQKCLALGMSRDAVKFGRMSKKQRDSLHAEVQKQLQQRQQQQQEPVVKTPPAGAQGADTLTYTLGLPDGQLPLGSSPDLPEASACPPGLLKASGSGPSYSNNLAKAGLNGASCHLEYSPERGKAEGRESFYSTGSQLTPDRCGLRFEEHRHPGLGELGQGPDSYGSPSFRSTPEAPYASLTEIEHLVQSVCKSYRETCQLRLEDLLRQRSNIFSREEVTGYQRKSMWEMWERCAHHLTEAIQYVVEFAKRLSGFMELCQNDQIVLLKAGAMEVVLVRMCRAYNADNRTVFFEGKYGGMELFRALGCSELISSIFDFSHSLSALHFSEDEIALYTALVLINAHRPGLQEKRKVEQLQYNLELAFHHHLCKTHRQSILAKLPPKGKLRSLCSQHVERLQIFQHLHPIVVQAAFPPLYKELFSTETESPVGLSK

[3] = Apparent permeability across apical to basolateral side in human Caco-2 cells measured after 90 mins by LC-MS/MS analysis; conditions: caco-2, 1.5 h
[4] = Apparent permeability across apical to basolateral side in MDCKII-MDR1 cells at 10 uM incubated for 90 mins by LC-MS/MS analysis; conditions: dog, mdck-mdr1, 1.5 h
[5] = Efflux ratio of apparent permeability from apical to basolateral side over basolateral to apical side in MDCKII-MDR1 cells at 10 uM incubated for 90 mins in presence of cyclosporine A by LC-MS/MS analysis; conditions: dog, mdck-mdr1, 1.5 h
[6] = Substrate activity at P-gp in MDCKII-MDR1 cells assessed as efflux ratio of apparent permeability from apical to basolateral side over basolateral to apical side at 10 uM incubated for 90 mins by LC-MS/MS analysis; conditions: dog, mdckii-mdr1, 1.5 h
[7] = molecular target: T2, Nuclear receptor ROR-gamma (Homo sapiens) (UniProt P51449); conditions: HEK293T, filed as inverse agonist, dose 0.004-1000 nM
T2 sequence (whole entry): T1 sequence (P51449 whole entry)

physchem [8] = conditions: PBS, pH 7.4
physchem [9] = conditions: citrate buffer, pH 5
physchem [10] = conditions: fasted state simulated gastric fluid, pH 1.6
[11] = molecular target: T2, Nuclear receptor ROR-gamma (Homo sapiens); experiment: Inverse agonist activity at RORgammaT in human PBMC cells assessed as reduction in CD4-positive IL17A-positive cells in Th17 polarization at 10 nM incubated for 48 hrs relative to control; assay type: cell-based; set-up: scale not given: the % may be the effect or the level left
[12] = molecular target: T2, Nuclear receptor ROR-gamma (Homo sapiens); experiment: Inverse agonist activity at RORgammaT in human PBMC cells assessed as reduction in CD4-positive IL21-positive cells in Th17 polarization at 10 nM incubated for 48 hrs relative to control; assay type: cell-based; set-up: scale not given: the % may be the effect or the level left
PBMC [13] = experiment: Cytotoxicity against human PBMC cells assessed as reduction in cell viability by flow cytometry method; assay type: toxicity, cell-based
PBMC [14] = experiment: Cytotoxicity against human PBMC cells assessed as cell death by flow cytometry method; assay type: toxicity, cell-based
PBMC [15] = experiment: Cytotoxicity against human PBMC cells assessed as increase in cell proliferation by flow cytometry method; assay type: toxicity, cell-based
[16] = molecular target: T2, Nuclear receptor ROR-gamma (Homo sapiens); experiment: Inverse agonist activity at RORgammaT in human PBMC cells assessed as reduction in IFNgamma-positive T cells in Th17 polarization at 10 nM incubated for 48 hrs; assay type: cell-based
[17] = molecular target: T2, Nuclear receptor ROR-gamma (Homo sapiens); experiment: Inverse agonist activity at RORgammaT in human PBMC cells assessed as reduction in IL22-positive T cells in Th17 polarization at 10 nM incubated for 48 hrs; assay type: cell-based
PBMC [18] = experiment: Induction of apoptosis in human PBMC cells by flow cytometry method; assay type: toxicity, cell-based
[19] = buffer, pH 7.4, 2 h

Row | Structure (SMILES) | logD [1] | pIC50 [2] | Papp [3] | Papp [4] | deltaG [7] | solubility kinetic at 2 h (physchem [8]) | solubility kinetic at 2 h (physchem [9]) | solubility kinetic at 2 h (physchem [10]) | other results
1 | CSc1ncc(Cl)c(C(=O)Nc2sc3c(c2C(=O)NC2CCS(=O)(=O)C2)CCC(C)C3)n1 (stereo not drawn) | 3.28 | 8.35 | 1.4 10^-6 cm/s | 2.5 10^-6 cm/s | -9.75 kcal/mol | 40.2 µM (≈ 20.7 µg/mL) | 9.72 µM (≈ 5.01 µg/mL) | 1.7 µM (≈ 0.876 µg/mL) | Ratio [5]: 1.1; Ratio [6]: 8.7
2 | C[C@@H](C#N)NC(=O)c1c(NC(=O)c2cccnc2)sc2c1CCCC2 | 2.85 | – | – | – | – | 90.9 µM (≈ 32.2 µg/mL) | – | – | –
3 | CCC1CCc2c(sc(NC(=O)c3ccnn3C)c2C(=O)Nc2ccccc2C)C1 (stereo not drawn) | 4.72 | – | 1.8 10^-6 cm/s | 3.2 10^-6 cm/s | – | ≤ 1 µM | 8.13 µM (≈ 3.44 µg/mL) | 2.8 µM (≈ 1.18 µg/mL) | –
4 | O=C(Nc1sc2c(c1C(=O)N1CCC(CO)C1)CCCC2)c1cccnc1 (stereo not drawn) | 2.6 | 7.34 | 4.4 10^-6 cm/s | 5.2 10^-6 cm/s | -6.16 kcal/mol | 79.3 µM (≈ 30.6 µg/mL) | 365 µM (≈ 141 µg/mL) | 330 µM (≈ 127 µg/mL) | Ratio [5]: 1.4; Ratio [6]: 4.7
5 | CC1CCc2c(sc(NC(=O)c3ccccc3F)c2C(=O)N2CCN(C)CC2)C1 (stereo not drawn) | 3.59 | – | 28.2 10^-6 cm/s | 28.9 10^-6 cm/s | – | 27.7 µM (≈ 11.5 µg/mL) | 349 µM (≈ 145 µg/mL) | ≥ 400 µM | –
6 | O=C(Nc1sc2c(c1C(=O)c1ccccc1)CCCC2)c1cnccn1 | 4.15 | 7.71 | – | – | -10.1 kcal/mol | 18.3 µM (≈ 6.67 µg/mL) | – | – | –
7 | O=C(NCc1ccccc1)c1c(NC(=O)C(F)(F)F)sc2c1CCCC2 | 4.43 | 8.68 | – | – | -10.2 kcal/mol | 28.8 µM (≈ 11 µg/mL) | – | – | –
8 | O=C(Nc1sc2c(c1C(=O)NCC1CCNCC1)CCCC2)c1cccnc1 | 0.4 | 7.24 | – | – | -7.29 kcal/mol | 84.7 µM (≈ 33.8 µg/mL) | – | – | –
9 | CC1CCCN1C(=O)c1c(NC(=O)c2cccnc2)sc2c1CCCC2 (stereo not drawn) | 3.68 | 8.45 | 34.2 10^-6 cm/s | 29 10^-6 cm/s | -7.57 kcal/mol | 31.3 µM (≈ 11.6 µg/mL) | 392 µM (≈ 145 µg/mL) | ≥ 400 µM | Ratio [5]: 0.8; Ratio [6]: 0.8
10 | O=C(CN1CCCCC1)Nc1sc2c(c1C(=O)NCc1ccccc1)CCCC2 | 4.33 | 8.67 | – | – | -10.3 kcal/mol | 19.7 µM (≈ 8.11 µg/mL) | – | – | –
11 | CN1CCN(CC(=O)Nc2sc3c(c2C(=O)NCc2ccccc2)CCCC3)CC1 | 3.06 | 8.93 | 4.6 10^-6 cm/s | 6.8 10^-6 cm/s | -12.5 kcal/mol | 99.3 µM (≈ 42.4 µg/mL) | 357 µM (≈ 152 µg/mL) | ≥ 400 µM | Ratio [5]: 1.2; Ratio [6]: 1.1
12 | CC1CCN(CC(=O)Nc2sc3c(c2C(=O)NCc2ccccc2)CCCC3)CC1 | 4.57 | – | 1.2 10^-6 cm/s | 1.3 10^-6 cm/s | – | 12.4 µM (≈ 5.29 µg/mL) | 3.02 µM (≈ 1.29 µg/mL) | 364 µM (≈ 155 µg/mL) | –
13 | CN1CCN(C(=O)c2c(NC(=O)c3ccccc3F)sc3c2CCC(C(C)(C)C)C3)CC1 (stereo not drawn) | 5.06 | – | – | – | – | 10.6 µM (≈ 4.83 µg/mL) | – | – | –
14 | C[C@@H]1CCN(C(=O)c2c(NC(=O)c3cccnc3)sc3c2CCCC3)[C@H](C)C1 (single isomer, unassigned) | 4.45 | – | – | – | – | 27 µM (≈ 10.7 µg/mL) | 23.7 µM (≈ 9.43 µg/mL) | ≥ 200 µM | –
15 | Cc1ccnc(SCC(=O)Nc2sc3c(c2C(=O)NCc2ccccc2)CCCC3)n1 | 4.92 | 9.16 | – | – | -10.2 kcal/mol | 3.23 µM (≈ 1.46 µg/mL) | – | – | –
16 | CC1(C)CCc2c(sc(NC(=O)c3cnccn3)c2C(=O)N2CCOCC2)C1 | 3 | – | – | – | – | 34.8 µM (≈ 13.9 µg/mL) | – | – | –
17 | CSc1ncc(Cl)c(C(=O)Nc2sc3c(c2C(=O)NCc2ccccc2)CCCC3)n1 | 5.45 | 9.40 | 4.2 10^-6 cm/s | 8 10^-6 cm/s | -11.6 kcal/mol | ≤ 1 µM | – | – | Activity [11]: 20%; Ratio [5]: 0.3; Activity [12]: 20%; Activity (PBMC [13]): Non-Toxic; Activity (PBMC [14]): Non-Toxic; Activity (PBMC [15]): Non-Toxic; Activity [16]: inactive; Activity [17]: inactive; Activity (PBMC [18]): Non-Toxic; Ratio [6]: 0.3
18 | Cn1ccnc1SCC(=O)Nc1sc2c(c1C(=O)NCc1ccccc1)CCCC2 | 4.44 | – | 18 10^-6 cm/s | 27.8 10^-6 cm/s | – | 8.05 µM (≈ 3.55 µg/mL) | 13.6 µM (≈ 5.97 µg/mL) | 267 µM (≈ 118 µg/mL) | –
19 | CCc1ccc(N(CC(C)C)S(=O)(=O)c2ccc(OCC3CCOCC3)c(CO)c2)cc1 [GSK2981278] | 4.11 | 8.77 | – | – | – | – | – | – | Kinetic_solubility [19]: Insoluble
20 | Cc1cnc(S(C)(=O)=O)nc1C(=O)Nc1sc2c(c1C(=O)c1ccccc1)CCCC2 | 3.94 | 7.78 | – | – | -10.1 kcal/mol | ≤ 1 µM | – | – | –
21 | Cn1cnc(CNC(=O)c2c(NC(=O)c3cccnc3)sc3c2CCCC3)n1 | 1.62 | 8.46 | – | – | -13.3 kcal/mol | 93.6 µM (≈ 37.1 µg/mL) | – | – | –
22 | CCC1CCN(C(=O)c2c(NC(=O)c3cccnc3)sc3c2CCCC3)C1 (stereo not drawn) | 4.05 | – | – | – | – | 32.9 µM (≈ 12.6 µg/mL) | – | – | –
